Assay results as given in patent US20190030009A1, “COMPOUNDS AND COMPOSITIONS FOR THE TREATMENT OF CRYPTOSPORIDIOSIS” (Novartis AG, priority 2016, published 2019).

Experiments:
[1] = target: C. parvum PI(4)K (Cryptosporidium parvum, UniProt Q5CVD3); test: CpPI(4)K enzymatic assay (Transcreener ADP2 FP); format: biochemical
From the text: The full-length coding sequence of C. parvum PI(4)K (cgd8_4500, 1114 amino acids) was codon-optimized for baculovirus expression, synthesized and cloned into pFastBac-HTb (Invitrogen 10584-027) in frame with the amino-terminal polyhistidine tag using the BamHI and Hindlll restriction sites. Recombinant pFastBacHTb-CpPI(4)K bacmid clones were generated by site-specific transposition in E. coli DH10Bac (Invitrogen 10361-012). The bacmid sequence was confirmed by direct DNA sequencing to confirm a lack of mutations across the whole gene. The subsequent steps for bacmid isolation, transfection and selection of the recombinant viruses were performed according to the manufacturer's protocol (Bac-to-Bac system #10359, Invitrogen).
SF9 cells, cultured in SF-900 III serum-free medium, were transfected with recombinant baculovirus at 1/200 (v/v) and incubated at 27° C. for 72 h. The pellets were collected after centrifugation and re-suspended in cell lysis buffer (20 mM Tris-HCl, pH 7.5, 300 mM NaCl, 1 mM DTT, 20 mM imidazole, 0.01% Triton X-100 and 1× complete protease inhibitor cocktail without EDTA (Roche Diagnostics 04693116001)). The cell suspension was lysed by sonication and the clarified supernatant was loaded onto a 1 ml HisTrap affinity column (GE Healthcare) pre-equilibrated with buffer A (20 mM Tris-HCl, pH 7.5, 300 mM NaCl, 1 mM DTT, 20 mM Imidazole, and 1× complete protease inhibitor cocktail without EDTA). The column was washed with buffer B (buffer A containing 45 mM imidazole) and the bound protein of interest was eluted with buffer C (buffer A with 90 mM imidazole). The fractions containing CpPI(4)K were pooled, concentrated using Amicon Ultra-15 and purified by a gel-filtration column (Hi-Load 26/60 Superdex 200, GE Healthcare) equilibrated with 20 mM Tris, pH 7.5, 300 mM NaCl, 1 mM DTT and 1× protease inhibitor cocktail without EDTA. The concentrations of the purified protein (Mw 132.39 kda) was determined by using the protein molar extinction coefficient (ε280 nm=133,810 M^−1 cm^−1). Aliquots were flash frozen in liquid nitrogen and immediately stored at −80° C.
The CpPI(4)K enzymatic assay was performed as described earlier with a some modifications (McNamara et al., 2013). Briefly, L-α-phosphatidylinositol (Avanti Polar Lipid 840046), dissolved in 3% n-octylglucoside (Roche Diagnostics 10634425001), was used as the lipid substrate for the PI(4)K activity assay. CpPI(4)K was assayed using Transcreener ADP2 FP detection kit (BellBrook 3010) in a black, solid 384-well plate (Corning 3575). The final assay volume was 10 μl and contained 3 nM of the respective CpPI(4)K construct in 10 mM Tris, pH 7.5, 1 mM DTT, 3 μM ATP, 5 mM Mn2+, 0.05% Triton X-100 and 10 μM phosphatidylinositol/octylglucoside. The enzyme reaction was performed for 50 minutes at room temperature and was stopped by adding 10 μl of detection mix containing 1× stop buffer (50 mM HEPES, pH7.5, 400 mM NaCl, 20 mM EDTA, and 0.02% Brij-35), 2 nM AMP Alexa Fluor 633 tracer, and 20 μg ml^−1 ADP antibody. Fluorescence polarization measurements were performed on the Infinite M1000 plate reader (Tecan) with λex=635 nm and λem=680 nm (20-nm bandwidth). IC50 values were calculated using Graphpad Prism software.
The inhibitory concentration (IC50) of selected compounds on the C. parvPI(4)K activity is provided in the third column [Cp_PI4K_enz IC50 (μM)] of Table II.

[2] = Cytotoxicity against HepG2; format: cell-based; details: human, HepG2 cells (ATCC HB-8065), 5 days exposure
Method in brief: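 Cells seeded at 10^5 per well, held 24 h at 37 °C, then exposed to two-fold serial dilutions of compound for 5 days. Viability read with Cell Proliferation Kit II (XTT); values reported as CC50.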

Sequence of C. parvum PI(4)K (Q5CVD3 entry or part of it): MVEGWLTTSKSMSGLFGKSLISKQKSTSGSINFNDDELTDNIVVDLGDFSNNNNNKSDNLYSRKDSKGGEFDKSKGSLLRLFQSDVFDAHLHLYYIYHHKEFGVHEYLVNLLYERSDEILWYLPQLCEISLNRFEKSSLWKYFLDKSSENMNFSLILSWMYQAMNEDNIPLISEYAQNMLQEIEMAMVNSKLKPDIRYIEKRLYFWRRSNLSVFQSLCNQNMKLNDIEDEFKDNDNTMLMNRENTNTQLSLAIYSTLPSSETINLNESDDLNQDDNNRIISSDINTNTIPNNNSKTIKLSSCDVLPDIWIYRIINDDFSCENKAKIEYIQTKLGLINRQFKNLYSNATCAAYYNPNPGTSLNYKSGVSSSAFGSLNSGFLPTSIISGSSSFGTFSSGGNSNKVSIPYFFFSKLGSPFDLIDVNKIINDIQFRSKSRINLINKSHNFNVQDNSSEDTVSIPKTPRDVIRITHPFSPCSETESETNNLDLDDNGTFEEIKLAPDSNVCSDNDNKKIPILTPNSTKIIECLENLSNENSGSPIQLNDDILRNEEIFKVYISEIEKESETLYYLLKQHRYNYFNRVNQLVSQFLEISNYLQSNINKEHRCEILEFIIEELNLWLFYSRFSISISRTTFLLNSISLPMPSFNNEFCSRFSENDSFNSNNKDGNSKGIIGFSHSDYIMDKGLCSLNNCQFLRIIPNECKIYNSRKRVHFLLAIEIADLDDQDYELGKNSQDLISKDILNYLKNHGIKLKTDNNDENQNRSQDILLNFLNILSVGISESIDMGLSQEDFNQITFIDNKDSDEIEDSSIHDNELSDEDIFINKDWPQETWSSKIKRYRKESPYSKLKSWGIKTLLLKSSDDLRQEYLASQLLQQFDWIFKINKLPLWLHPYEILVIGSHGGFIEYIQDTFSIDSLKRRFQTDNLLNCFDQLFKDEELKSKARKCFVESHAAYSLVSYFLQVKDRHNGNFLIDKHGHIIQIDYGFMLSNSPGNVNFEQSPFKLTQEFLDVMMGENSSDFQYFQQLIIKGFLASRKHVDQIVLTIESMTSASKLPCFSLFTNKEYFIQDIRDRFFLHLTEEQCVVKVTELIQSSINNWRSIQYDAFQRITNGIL

| Compound | IC50 [1] | CC50 at 5 days [2] |
| --- | --- | --- |
| CNC(=O)c1ccc(-c2cnn3ccc(C(=O)N(c4ccc(C(F)(F)F)cn4)C(C)C)cc23)cc1 [Example 153] | 6 nM | 20600 nM |
| CCNC(=O)c1ccc(-c2cnn3ccc(C(=O)N(c4ccc(C#N)cn4)C4CC4)cc23)cc1 [Example 127] | 3 nM | 40200 nM |
| N#Cc1ccc(N(C(=O)c2ccn3ncc(-c4ccc(C(=O)NC5CC5)cc4)c3c2)C2CC2)nc1 [Example 123] | 38 nM | 17200 nM |
| CNC(=O)c1ccc(-c2cnn3ccc(C(=O)N(c4ccc(C#N)c(OC)n4)C4CC4)cc23)cc1 [Example 149] | 4 nM | 23300 nM |
| CCN(C(=O)c1ccn2ncc(-c3ccc(C(=O)NC)cc3)c2c1)c1ccc(C#N)cn1 [Example 90] | 8 nM | 14800 nM |
| CCN(C(=O)c1ccn2ncc(-c3ccc(C(=O)NC)nc3)c2c1)c1ccc(C#N)cn1 [Example 150] | 219 nM | 9820 nM |
| CNC(=O)c1ccc(-c2cnn3ccc(C(=O)N(c4ccc(C#N)cn4)C(C)C)cc23)cc1 [Example 91] | 21 nM | 18700 nM |
| N#Cc1ccc(N(C(=O)c2ccn3ncc(-c4ccc(C(N)=O)cc4)c3c2)C2CC2)nc1 [Example 120] | 40 nM | 23700 nM |
| CNC(=O)c1ccc(-c2cnn3ccc(C(=O)N(NC)c4ccc(C#N)cc4)cc23)cn1 [Example 92] | 57 nM | 8520 nM |
| CNC(=O)c1ccc(-c2cnn3ccc(C(=O)N(c4ccc(C(F)(F)F)cn4)C4CCC4)cc23)cc1 [Example 160] | 8 nM | 2090 nM |
| CCN(C(=O)c1ccn2ncc(-c3ccc(C(=O)NC)cc3)c2c1)c1ccc(C(F)(F)F)cn1 [Example 96] | 3 nM | 7140 nM |
| CC(C)NC(=O)c1ccc(-c2cnn3ccc(C(=O)N(c4ccc(C#N)cn4)C4CC4)cc23)cc1 [Example 121] | 860 nM | 33200 nM |
| CNC(=O)c1ccc(-c2cnn3ccc(N(C)C(=O)c4ccc(C#N)cn4)cc23)cc1 [Example 94] | 117 nM | 31200 nM |
| N#Cc1ccc(N(C(=O)c2ccn3ncc(-c4ccc(C(=O)NC5COC5)cc4)c3c2)C2CC2)nc1 [Example 131] | 329 nM | > 50000 nM |
| CNC(=O)c1ccc(-c2cnn3ccc(C(=O)N(c4ccc(Cl)cn4)C4CC4)cc23)cc1 [Example 124] | 14 nM | 21000 nM |
| CNC(=O)c1ccc(-c2cnn3ccc(C(=O)N(c4ccc(C#N)cn4)C4CCC4)cc23)cc1 [Example 112] | 72 nM | 5020 nM |
